Measurements from patent US20110224210A1, “NOVEL BIS-AMIDES AS ANTI-MALARIAL AGENTS” (priority 2008, published 2011).

System: P. falciparum K1 (strain resistant to chloroquine and pyrimethamine), erythrocytic stages
Assay: Plasmodium falciparum in vitro assay, [3H] hypoxanthine incorporation
Type: cell-based
Details: Plasmodium falciparum, K1, P. falciparum strain K1; [3H] hypoxanthine incorporation; read-out: IC50 (nM) on K1
In short: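 Chloroquine/pyrimethamine-resistant K1 erythrocytic cultures (2.5% haematocrit, 0.3% parasitaemia, hypoxanthine-free RPMI with Albumax) exposed to seven doubling dilutions at 37 °C under low O2.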

Row | Structure (SMILES) | IC50 [nM]
1 | O=C([C@H](Cc1ccccc1)N(Cc1ccc(-c2ccccn2)cc1)C(=O)C=Cc1ccc(C(F)(F)F)nc1)N1Cc2ccccc2C1 [Example 58, (S)-N-[1-Benzyl-2-(1,3-dihydro-isoindol-2-yl)-2-oxo-ethyl]-N-(4-pyridin-2-yl-benzyl)-3-(6-trifluoromethyl-pyridin-3-yl)-acrylamide] | 50
2 | COCCN(C)C(=O)[C@H](Cc1ccccc1)N(Cc1ccccc1)C(=O)C=Cc1ccc(C)cc1 [Example 160, (S)-N-Benzyl-N-{1-[(2-methoxy-ethyl)-methyl-carbamoyl]-2-phenyl-ethyl}-3-p-tolyl-acrylamide] | 93
3 | COCCN(C)C(=O)[C@H](Cc1ccccc1)N(Cc1ccc(-c2ccccn2)cc1)C(=O)C=Cc1sc(C)nc1C [Example 77, (S)-3-(2,4-Dimethyl-thiazol-5-yl)-N-{1-[(2-methoxy-ethyl)-methyl-carbamoyl]-2-phenyl-ethyl}-N-(4-pyridin-2-yl-benzyl)-acrylamide] | 23
4 | CN(CCN(C)C(=O)[C@H](Cc1ccccc1)N(Cc1ccc(N2CCOCC2)cc1)C(=O)C=Cc1ccc(C(F)(F)F)cc1)Cc1ccncc1 [Example 270, (S)-N-(1-{Methyl-[2-(methyl-pyridin-4-ylmethyl-amino)-ethyl]-carbamoyl}-2-phenyl-ethyl)-N-(4-morpholin-4-yl-benzyl)-3-(4-trifluoromethyl-phenyl)-acrylamide] | 25
5 | O=C([C@H](Cc1ccccc1)N(Cc1ccc(-c2cncnc2)cc1)C(=O)C=Cc1ccc(C(F)(F)F)cc1)N1CCc2ccccc21 [Example 57, (S)-N-[1-Benzyl-2-(2,3-dihydro-indol-1-yl)-2-oxo-ethyl]-N-(4-pyrimidin-5-yl-benzyl)-3-(4-trifluoromethyl-phenyl)-acrylamide] | 89
6 | CN(CCN(C)C(=O)[C@H](Cc1ccccc1)N(Cc1ccc(-c2ccccn2)cc1)C(=O)C=Cc1ccc(C(F)(F)F)cc1)Cc1ccco1 [Example 223, (S)-N-(1-{[2-(Furan-2-ylmethyl-methyl-amino)-ethyl]-methyl-carbamoyl}-2-phenyl-ethyl)-N-(4-pyridin-2-yl-benzyl)-3-(4-trifluoromethyl-phenyl)-acrylamide] | 25
7 | COCCN(C)C(=O)[C@H](Cc1ccccc1)N(Cc1ccc(-c2cncnc2)cc1)C(=O)C=Cc1ccn(C)n1 [Example 119, (S)-N-{1-[(2-Methoxy-ethyl)-methyl-carbamoyl]-2-phenyl-ethyl}-3-(1-methyl-1H-pyrazol-3-yl)-N-(4-pyrimidin-5-yl-benzyl)-acrylamide] | 81
8 | COCCN(C)C(=O)C(Cc1ccon1)N(Cc1ccc(-c2ccncc2)cc1)C(=O)C=Cc1ccc(C(F)(F)F)cc1 (racemic) [Example 169] | 312
9 | C[C@@H]1CC[C@H]2[C@@H](C)C(=O)O[C@@H]3O[C@@]4(C)CC[C@@H]1[C@]32OO4 [Artemisinin] | 3
10 | CCN(CC)c1ccc(CN(C)CCN(C)C(=O)[C@H](Cc2ccccc2)N(Cc2ccc(N3CCOCC3)cc2)C(=O)C=Cc2ccc(C(F)(F)F)cc2)cc1 [Example 257, (S)-N-[1-({2-[(4-Diethylamino-benzyl)-methyl-amino]-ethyl}-methyl-carbamoyl)-2-phenyl-ethyl]-N-(4-morpholin-4-yl-benzyl)-3-(4-trifluoromethyl-phenyl)-acrylamide] | 65
11 | CN(C)CC1CCN(C(=O)[C@H](Cc2ccccc2)N(Cc2ccc(-c3ccccn3)cc2)C(=O)C=Cc2ccc(C(F)(F)F)nc2)CC1 [Example 51, (S)-N-[1-Benzyl-2-(4-dimethylaminomethyl-piperidin-1-yl)-2-oxo-ethyl]-N-(4-pyridin-2-yl-benzyl)-3-(6-trifluoromethyl-pyridin-3-yl)-acrylamide] | 90
12 | C=CCOCCN(C)C(=O)[C@H](Cc1ccccc1)N(Cc1ccc(N2CCN(C(C)=O)CC2)cc1)C(=O)C=Cc1ccc(C(F)(F)F)nc1 [Example 218, (S)-N-[4-(4-Acetyl-piperazin-1-yl)-benzyl]-N-{1-[(2-allyloxy-ethyl)-methyl-carbamoyl]-2-phenyl-ethyl}-3-(6-trifluoromethyl-pyridin-3-yl)-acrylamide] | 40
13 | CN(C)C1CCN(C(=O)C(Cc2cnn(C)c2)N(Cc2ccc(-c3ccccn3)cc2)C(=O)C=Cc2ccc(C(F)(F)F)cc2)CC1 (racemic) [Example 137] | 413
14 | CN(C)C1CCN(C(=O)C(Cc2ccn(C)n2)N(Cc2ccc(-c3ccccn3)cc2)C(=O)C=Cc2ccc(C(F)(F)F)cc2)CC1 (racemic) [Example 138] | 340
15 | C=CCOCCN(C)C(=O)[C@H](Cc1ccccc1)N(Cc1ccc(N2CCN(C(C)=O)CC2)cc1)C(=O)C=Cc1ccc(C(F)(F)F)cc1 [Example 212, (S)-N-[4-(4-Acetyl-piperazin-1-yl)-benzyl]-N-{1-[(2-allyloxy-ethyl)-methyl-carbamoyl]-2-phenyl-ethyl}-3-(4-trifluoromethyl-phenyl)-acrylamide] | 20
16 | COCCN(C)C(=O)[C@H](Cc1ccccc1)N(Cc1ccc(N2CCOCC2)nc1)C(=O)C=Cc1ccc(C(F)(F)F)cc1 [Example 157, (S)-N-{1-[(2-Methoxy-ethyl)-methyl-carbamoyl]-2-phenyl-ethyl}-N-(6-morpholin-4-yl-pyridin-3-ylmethyl)-3-(4-trifluoromethyl-phenyl)-acrylamide] | 10
17 | COc1ccc(C=CC(=O)N(Cc2ccc(N3CCOCC3)cc2)[C@@H](Cc2ccccc2)C(=O)N2CCC(N(C)C)CC2)cn1 [Example 5, (S)-N-[1-Benzyl-2-(4-dimethylamino-piperidin-1-yl)-2-oxo-ethyl]-3-(6-methoxy-pyridin-3-yl)-N-(4-morpholin-4-yl-benzyl)-acrylamide] | 319
18 | Cc1ccccc1CN(C)CCN(C)C(=O)[C@H](Cc1ccccc1)N(Cc1ccc(-c2ccccn2)cc1)C(=O)C=Cc1ccc(C(F)(F)F)cc1 [Example 233, (S)-N-[1-(Methyl-{2-[methyl-(2-methyl-benzyl)-amino]-ethyl}-carbamoyl)-2-phenyl-ethyl]-N-(4-pyridin-2-yl-benzyl)-3-(4-trifluoromethyl-phenyl)-acrylamide] | 53
19 | Cc1cc(C=CC(=O)N(Cc2ccc(-c3ccccn3)cc2)[C@@H](Cc2ccccc2)C(=O)N2CCC(N(C)C)CC2)n(C)n1 [Example 8, (S)-N-[1-Benzyl-2-(4-dimethylamino-piperidin-1-yl)-2-oxo-ethyl]-3-(2,5-dimethyl-2H-pyrazol-3-yl)-N-(4-pyridin-2-yl-benzyl)-acrylamide] | 381
20 | CN(C)C1CCN(C(=O)[C@H](Cc2ccccc2)N(Cc2ccc(N3CCOCC3)cc2)C(=O)C=Cc2ccc(C(F)(F)F)cn2)CC1 [Example 4, (S)-N-[1-Benzyl-2-(4-dimethylamino-piperidin-1-yl)-2-oxo-ethyl]-N-(4-morpholin-4-yl-benzyl)-3-(5-trifluoromethyl-pyridin-2-yl)-acrylamide] | 323
21 | CN(CCN(C)C(=O)[C@H](Cc1ccccc1)N(Cc1ccc(-c2ccccn2)cc1)C(=O)C=Cc1ccc(C(F)(F)F)cc1)Cc1cccnc1 [Example 231, (S)-N-(1-{Methyl-[2-(methyl-pyridin-3-ylmethyl-amino)-ethyl]-carbamoyl}-2-phenyl-ethyl)-N-(4-pyridin-2-yl-benzyl)-3-(4-trifluoromethyl-phenyl)-acrylamide] | 30
22 | COCCN(C)C(=O)[C@H](Cc1ccccc1)N(Cc1ccc(N2CCN(C(C)=O)CC2)cc1)C(=O)C=Cc1ccc(OC)nc1 [Example 115, (S)-N-[4-(4-Acetyl-piperazin-1-yl)-benzyl]-N-{1-[(2-methoxy-ethyl)-methyl-carbamoyl]-2-phenyl-ethyl}-3-(6-methoxy-pyridin-3-yl)-acrylamide] | 32
23 | CN(C)C1CCN(C(=O)C(Cc2ccn(C)n2)N(Cc2ccc(-c3ccncc3)cc2)C(=O)C=Cc2ccc(C(F)(F)F)cc2)CC1 (racemic) [Example 140] | 191
24 | CN(CCN(C)C(=O)[C@H](Cc1ccccc1)N(Cc1ccc(-c2ccccn2)cc1)C(=O)C=Cc1ccc(C(F)(F)F)cc1)Cc1ccc(Cl)s1 [Example 226, (S)-N-[1-({2-[(5-Chloro-thiophen-2-ylmethyl)-methyl-amino]-ethyl}-methyl-carbamoyl)-2-phenyl-ethyl]-N-(4-pyridin-2-yl-benzyl)-3-(4-trifluoromethyl-phenyl)-acrylamide] | 75
25 | COCCN(C)C(=O)[C@H](Cc1ccccc1)N(Cc1ccc(N2CCOCC2)cc1)C(=O)C=Cc1ccc(C)nc1 [Example 69, (S)-N-{1-[(2-Methoxy-ethyl)-methyl-carbamoyl]-2-phenyl-ethyl}-3-(6-methyl-pyridin-3-yl)-N-(4-morpholin-4-yl-benzyl)-acrylamide] | 169
26 | COCCN(C)C(=O)[C@H](Cc1ccccc1)N(Cc1ccc(-c2ccccn2)cc1)C(=O)C=Cc1cc(C)on1 [Example 79, (S)-N-{1-[(2-Methoxy-ethyl)-methyl-carbamoyl]-2-phenyl-ethyl}-3-(5-methyl-isoxazol-3-yl)-N-(4-pyridin-2-yl-benzyl)-acrylamide] | 288
27 | CN(CCN(C)C(=O)[C@H](Cc1ccccc1)N(Cc1ccc(-c2ccccn2)cc1)C(=O)C=Cc1ccc(C(F)(F)F)cc1)Cc1ccc(Br)nc1 [Example 227, (S)-N-[1-({2-[(6-Bromo-pyridin-3-ylmethyl)-methyl-amino]-ethyl}-methyl-carbamoyl)-2-phenyl-ethyl]-N-(4-pyridin-2-yl-benzyl)-3-(4-trifluoromethyl-phenyl)-acrylamide] | 18
28 | Cc1ccc(CN(C)CCN(C)C(=O)[C@H](Cc2ccccc2)N(Cc2ccc(-c3ccccn3)cc2)C(=O)C=Cc2ccc(C(F)(F)F)cc2)c(C)c1 [Example 234, (S)-N-[1-({2-[(2,4-Dimethyl-benzyl)-methyl-amino]-ethyl}-methyl-carbamoyl)-2-phenyl-ethyl]-N-(4-pyridin-2-yl-benzyl)-3-(4-trifluoromethyl-phenyl)-acrylamide] | 64
29 | CN(Cc1ccc(N2CCCC2=O)cc1)C(=O)[C@H](Cc1ccccc1)N(Cc1ccc(N2CCOCC2)cc1)C(=O)C=Cc1ccc(C(F)(F)F)nc1 [Example 272] | 80
